Measured values published in patent US20160228484A1, “TOMATO POWDER-BASED COMPOSITION” (MEDIAPHARMA S.R.L., priority 2013, published 2016).

Columns and labels:
Type in all cases: in vivo, mouse
TRAMP mice = experiment: Kaplan-Meier survival of TRAMP mice fed fortified diets; settings: Lycopene treated, not significantly different from Control Diet (11%), P=0.384, unpublished observations
Text: In man, early prostate tumorigenesis appears to be associated with a dysplasia that starts with proliferative inflammatory atrophy which may progress to low-grade Prostatic Intraepithelial Neoplasia (PIN), to high-grade PIN, to primary cancer, to metastatic cancer, and to hormone refractory cancer after hormonal treatment (23,24). Transgenic adenocarcinoma of the mouse prostate (TRAMP) is a model in which the progression of prostate cancer mirrors the stages of the human form, from PIN to undifferentiated, androgen independent tumor (25). Expression od the SV40 early genes driven by the prostate-specific promoter probasin leads to prostate cell transformation and all TRAMP mice develop prostate cancer spontaneously. This model, therefore, is regularly used to assess chemoprevention of prostate cancer (22).
In a recent paper (36), we reported that a tomato diet (Control Diet enriched with 10% of a “tomato powder”, whose composition is reported in Table 1), increased TRAMP mice survival.

VEGF = VEGF serum levels during different diets in TRAMP mice; settings: FIG. 4; diet fortified 10%; two-ways ANOVA; RED007 P<0.0001; Lycopene P=0.204
Text: FIG. 4: VEGF serum levels during different diets. Values represent mean ±SD(n8mice). […] RED007 may be also designated “Lycoprozen”. The two terms are interchangeable herein.
(§1) FIG. 6: VEGF serum levels during different diets. Values represent mean±SD(n8mice). The control diet was fortified with a 10% mixture of A and B components. The two components were mixed according to different Acomponent/Bcomponent ratios (w/w), i.e. 99.5:0.5, 98.0:2.0 (RED007 diet), and 96.0:4.0, respectively.

IL6 = IL6 serum levels during different diets in TRAMP mice; settings: FIG. 5; diet fortified 10%; two-ways ANOVA; RED007 P<0.0001; Lycopene P=0.314
Text: FIG. 5: IL6 serum levels during different diets. Values represent mean±SD(n8mice).
as §1, with “7: IL6” for “6: VEGF”, “mean ±SD(n8mice).” for “mean±SD(n8mice).”

## CC(C)=CCC/C(C)=C/C=C/C(C)=C/C=C/C(C)=C/C=C/C=C(C)/C=C/C=C(C)/C=C/C=C(\C)CCC=C(C)C [Lycopene, lycopene]
TRAMP mice
  survival proportion: 17%
VEGF
  VEGF serum levels compared to Control Diet: did not significantly modify
IL6
  IL6 serum levels compared to Control Diet: did not significantly modify
